Molecules are shown by their SMILES.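 In this assay, cells in 96-well plates receive the compound at five concentrations for 48 hours. Endpoints are linearly interpolated between the surrounding concentrations. At the GI50, growth is halved.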 The source made the active and inactive calls. No stated cut-off is given here; in the data, active = GI50 up to about 1.1 µM and inactive = higher. A value given as a limit tells only on which side of the number the result lay.

Some test systems named below: HOP-92; K562; RXF 393; KM12; NCI-H226; NCI/ADR-RES; EKVX; SK-MEL-5; Hs-578T; HL-60; SF-268; MCF7; HOP-62; IGROV-1; SK-MEL-2; SK-MEL-28; Malme-3M; PC-3; SR; M14.
Test in all cases: growth of human tumour cells (NCI), 48 h

In the case of `CC(C)(CO)CNc1nc(N)nc(Cl)c1/C=N/O`, the GI50 in the assay with HOP-92 was 19.7 µM (inactive); in the assay on K562 it was 13.9 µM (inactive); in the assay on RXF 393, 22.2 µM (inactive); in the assay with KM12, 84.5 µM (inactive); in the assay on NCI-H226, 22.6 µM (inactive); in the assay on NCI/ADR-RES, 41.6 µM (inactive). Moreover, the GI50 was 17.5 µM (inactive) in the assay on EKVX; 5.78 µM (inactive) with SK-MEL-5; 27 µM (inactive) in the assay with Hs-578T; 29.8 µM (inactive) in the assay on HL-60; 8.91 µM (inactive) in the assay with SF-268; 23.8 µM (inactive) in the assay on MCF7. Moreover, the GI50 in the assay on HOP-62 was 30.9 µM (inactive); in the assay on IGROV-1, 13 µM (inactive); in the assay on SK-MEL-2 it was 39.7 µM (inactive); with SK-MEL-28, 48.4 µM (inactive); in the assay on Malme-3M, 57.4 µM (inactive); with PC-3, 49.5 µM (inactive). For the same compound, the GI50 with SR is 24.1 µM (inactive).
As for `N#Cc1[nH]c(=S)[nH]c1N`, the GI50 in the assay with HOP-92, in the assay on K562, with RXF 393, with NCI-H226, in the assay with NCI/ADR-RES and in the assay with EKVX was > 100 µM (inactive) each time. Moreover, the GI50 was > 100 µM (inactive) in the assay on SK-MEL-5; 2.99 µM (inactive) with Hs-578T; > 100 µM (inactive) in the assay with HL-60; > 100 µM (inactive) in the assay on SF-268; > 100 µM (inactive) with MCF7; > 100 µM (inactive) in the assay with HOP-62. Moreover, the GI50 with IGROV-1, in the assay with SK-MEL-2, in the assay with SK-MEL-28, with Malme-3M, in the assay with PC-3 and with SR was > 100 µM (inactive) in each case.
`CO/N=C\c1ccc2c(c1)Sc1ccccc1O2`: the GI50 is 36.4 µM (inactive) in the assay with HOP-92; 51.8 µM (inactive) with K562; 27.5 µM (inactive) with RXF 393; 42.3 µM (inactive) with KM12; > 100 µM (inactive) in the assay on NCI-H226; 90.6 µM (inactive) with NCI/ADR-RES. Moreover, the GI50 is 30.2 µM (inactive) in the assay on EKVX; 30.9 µM (inactive) in the assay with Hs-578T; 26.2 µM (inactive) with HL-60; 72.3 µM (inactive) in the assay on SF-268; 34.7 µM (inactive) with MCF7; > 100 µM (inactive) in the assay on HOP-62. In addition, the GI50 was 62.4 µM (inactive) with IGROV-1; 35.1 µM (inactive) in the assay with SK-MEL-2; > 100 µM (inactive) in the assay with SK-MEL-28; 30.5 µM (inactive) in the assay with M14; 31.4 µM (inactive) with Malme-3M; 51.9 µM (inactive) in the assay on PC-3. Besides, the GI50 in the assay with SR was 23.4 µM (inactive).
Regarding `CCCCCC(C)(C)CCC(=O)OC1OC(COC2OC(COC3OC(CO)C(O)C(O)C3O)C(O)C(O)C2O)C(O)C(O)C1O` (stereo not drawn), the GI50 with HOP-92 was > 100 µM (inactive); with K562 it was > 100 µM (inactive); in the assay with RXF 393, 6.17 µM (inactive); in the assay with KM12 it was > 100 µM (inactive); in the assay on NCI-H226, > 100 µM (inactive); in the assay with NCI/ADR-RES it was > 100 µM (inactive). For the same compound, the GI50 with EKVX, in the assay with SK-MEL-5, in the assay with Hs-578T, in the assay on HL-60, in the assay on SF-268 and in the assay with MCF7 was > 100 µM (inactive) each time. In addition, the GI50 with HOP-62, in the assay on IGROV-1, in the assay with SK-MEL-2, in the assay with M14, in the assay on Malme-3M and in the assay on PC-3 was > 100 µM (inactive) in each case. The GI50 with SR is > 100 µM (inactive).
As for `N/C(CSCCSC/C(N)=N/O)=N\O`, the GI50 in the assay on HOP-92, with K562, in the assay on RXF 393, in the assay on KM12, in the assay on NCI-H226 and in the assay with NCI/ADR-RES was > 100 µM (inactive) in each case. Further, the GI50 in the assay with EKVX, in the assay with SK-MEL-5, in the assay with Hs-578T, with HL-60, in the assay with SF-268 and with MCF7 was > 100 µM (inactive) in each case. In addition, the GI50 with HOP-62, in the assay on IGROV-1, in the assay on SK-MEL-28, with M14, in the assay with Malme-3M and in the assay on PC-3 was > 100 µM (inactive) in each case. In addition, the GI50 in the assay with SR is > 100 µM (inactive).
On to `CN(C)c1n/c(=N/Cc2cccs2)ss1`, for which the GI50 with HOP-92 was > 10 µM (inactive); with K562, 3.4 µM (inactive); with RXF 393, > 10 µM (inactive); in the assay on KM12 it was > 10 µM (inactive); with NCI-H226, > 10 µM (inactive); in the assay on NCI/ADR-RES, > 10 µM (inactive). For the same compound, the GI50 in the assay on EKVX is > 10 µM (inactive); in the assay with SK-MEL-5 it was > 10 µM (inactive); with Hs-578T it was > 10 µM (inactive); in the assay on HL-60 it was 1.35 µM (inactive); in the assay on SF-268, > 10 µM (inactive); with MCF7, > 10 µM (inactive). Moreover, the GI50 in the assay on HOP-62, in the assay with IGROV-1, with SK-MEL-28, with M14, in the assay on Malme-3M and in the assay with PC-3 was > 10 µM (inactive) in each case. Moreover, in the assay on SR, the GI50 is 0.573 µM (active).
`N=C(N)N/N=C\c1ccc(C2CCNCC2)cc1`: the GI50 in the assay on HOP-92, in the assay on K562, in the assay with RXF 393, with KM12, in the assay with NCI-H226 and in the assay with NCI/ADR-RES was > 100 µM (inactive) each time. The GI50 in the assay on EKVX, in the assay with SK-MEL-5, with Hs-578T, in the assay on SF-268, in the assay on MCF7 and in the assay on HOP-62 was > 100 µM (inactive) each time. In addition, the GI50 with IGROV-1, with SK-MEL-2, in the assay with SK-MEL-28, in the assay with M14, in the assay with Malme-3M and with PC-3 was > 100 µM (inactive) throughout. Moreover, the GI50 with SR was > 100 µM (inactive).
For `O=C(c1cccc(F)c1F)N1CCc2c([nH]c3ccccc23)C1c1ccc2c(c1)OCO2` (stereo not drawn), the GI50 in the assay with HOP-92 is 26.5 µM (inactive); with K562 it was 4.22 µM (inactive); with RXF 393 it was 4.99 µM (inactive); in the assay with KM12, 4.92 µM (inactive); with NCI/ADR-RES, 5.56 µM (inactive); with EKVX, 8.32 µM (inactive). The GI50 in the assay with SK-MEL-5 was 3.63 µM (inactive); in the assay on Hs-578T, 23.8 µM (inactive); in the assay with HL-60 it was 3.4 µM (inactive); with SF-268, 27.3 µM (inactive); in the assay on MCF7, 4.27 µM (inactive); in the assay with HOP-62, 0.337 µM (active). The GI50 with IGROV-1 is 16.2 µM (inactive); in the assay with SK-MEL-2, 4.2 µM (inactive); with SK-MEL-28, 32.1 µM (inactive); in the assay with M14, 3.85 µM (inactive); in the assay on Malme-3M it was 28.4 µM (inactive); in the assay on PC-3, 2.97 µM (inactive). Also, the GI50 with SR was 3.61 µM (inactive).
As to `Cc1cc(NCc2ccccc2)c2ccccc2[n+]1CCCCCCCCCC[n+]1c(C)cc(NCc2ccccc2)c2ccccc21.[O-][Cl+3]([O-])([O-])[O-].[O-][Cl+3]([O-])([O-])[O-]`, the GI50 in the assay with HOP-92 was 0.649 µM (active); in the assay with K562, 0.271 µM (active); with RXF 393 it was 1.96 µM (inactive); in the assay on KM12 it was 0.191 µM (active); with NCI/ADR-RES, 3.15 µM (inactive); in the assay on EKVX, 1.19 µM (inactive). Also, the GI50 in the assay with SK-MEL-5 is 0.171 µM (active); in the assay with Hs-578T, 0.65 µM (active); in the assay on HL-60, 0.265 µM (active); in the assay with SF-268, 0.478 µM (active); with MCF7, 0.318 µM (active); with IGROV-1, 2.98 µM (inactive). Also, the GI50 was 0.458 µM (active) in the assay on SK-MEL-2; 0.71 µM (active) with SK-MEL-28; 1.21 µM (inactive) with M14; 4.06 µM (inactive) in the assay with Malme-3M; 0.458 µM (active) with PC-3; 0.223 µM (active) with SR.
Turning to `CC1C2C=CC1C(c1c3ccc(=O)c(O)c-3oc3c(O)c(O)ccc13)C2C(=O)O` (stereo not drawn), the GI50 in the assay on HOP-92 was 75 µM (inactive); in the assay with K562, 21.4 µM (inactive); in the assay with RXF 393, > 100 µM (inactive); in the assay with KM12, 50.2 µM (inactive); with NCI-H226 it was 10.2 µM (inactive); in the assay on NCI/ADR-RES, > 100 µM (inactive). The GI50 in the assay on EKVX is 50.9 µM (inactive); with SK-MEL-5 it was 91.6 µM (inactive); in the assay on Hs-578T it was 89.5 µM (inactive); with HL-60, 44.3 µM (inactive); in the assay on SF-268 it was > 100 µM (inactive); with MCF7 it was 20.7 µM (inactive). Also, the GI50 in the assay on HOP-62, with IGROV-1, with SK-MEL-2, with SK-MEL-28, with M14 and with PC-3 was > 100 µM (inactive) each time. The GI50 in the assay on SR was 33.9 µM (inactive).

(Values after ChEMBL document CHEMBL1201862, “PubChem BioAssay data set” (2004).)
